In one experiment the target is T1, NADPH oxidase 1 (Homo sapiens, UniProt Q9Y5S8).
T1 sequence (Q9Y5S8 whole entry): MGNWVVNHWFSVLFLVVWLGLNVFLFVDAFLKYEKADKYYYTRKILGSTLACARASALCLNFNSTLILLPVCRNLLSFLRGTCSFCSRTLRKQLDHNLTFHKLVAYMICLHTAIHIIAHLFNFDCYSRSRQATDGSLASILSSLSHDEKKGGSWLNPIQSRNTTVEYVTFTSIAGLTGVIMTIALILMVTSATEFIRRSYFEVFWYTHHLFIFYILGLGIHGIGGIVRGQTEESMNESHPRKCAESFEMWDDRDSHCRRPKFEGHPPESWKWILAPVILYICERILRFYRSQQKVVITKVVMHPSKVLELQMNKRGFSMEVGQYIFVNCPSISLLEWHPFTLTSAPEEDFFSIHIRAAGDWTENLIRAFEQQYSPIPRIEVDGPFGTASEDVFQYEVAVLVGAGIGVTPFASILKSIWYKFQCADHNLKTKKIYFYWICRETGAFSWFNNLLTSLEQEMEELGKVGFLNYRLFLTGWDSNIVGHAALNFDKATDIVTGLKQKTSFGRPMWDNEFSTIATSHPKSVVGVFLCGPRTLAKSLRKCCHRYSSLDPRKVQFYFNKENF
The experiment is described as follows: Late stage results from the probe development effort to identify inhibitors of NOX1: HEK/293 IC50. [Related pubchem assays: 1796 (Summary AID (NOX1)), 2752 (Primary screen (NOX1 inhibitors, synthesized analogs set 2)), 2664 (Primary screen (NOX1 inhibitors, synthesized analogs)), 1792 (Primary Screen (NOX1)), 2545 (Confirmation screen (NOX1 …. The experiment is classed as functional.

In experiment [1] the target is G-protein coupled receptor 183 (Homo sapiens, UniProt P32249). The experiment is described as follows: SAR confirmation of small molecule antagonists of the EBI2 receptor via a luminescent beta-arrestin assa. The experiment is classed as functional.
A further experiment has as its target T2, Phospholipase D1 (Homo sapiens, UniProt Q13393).
T2 sequence (Q13393 whole entry): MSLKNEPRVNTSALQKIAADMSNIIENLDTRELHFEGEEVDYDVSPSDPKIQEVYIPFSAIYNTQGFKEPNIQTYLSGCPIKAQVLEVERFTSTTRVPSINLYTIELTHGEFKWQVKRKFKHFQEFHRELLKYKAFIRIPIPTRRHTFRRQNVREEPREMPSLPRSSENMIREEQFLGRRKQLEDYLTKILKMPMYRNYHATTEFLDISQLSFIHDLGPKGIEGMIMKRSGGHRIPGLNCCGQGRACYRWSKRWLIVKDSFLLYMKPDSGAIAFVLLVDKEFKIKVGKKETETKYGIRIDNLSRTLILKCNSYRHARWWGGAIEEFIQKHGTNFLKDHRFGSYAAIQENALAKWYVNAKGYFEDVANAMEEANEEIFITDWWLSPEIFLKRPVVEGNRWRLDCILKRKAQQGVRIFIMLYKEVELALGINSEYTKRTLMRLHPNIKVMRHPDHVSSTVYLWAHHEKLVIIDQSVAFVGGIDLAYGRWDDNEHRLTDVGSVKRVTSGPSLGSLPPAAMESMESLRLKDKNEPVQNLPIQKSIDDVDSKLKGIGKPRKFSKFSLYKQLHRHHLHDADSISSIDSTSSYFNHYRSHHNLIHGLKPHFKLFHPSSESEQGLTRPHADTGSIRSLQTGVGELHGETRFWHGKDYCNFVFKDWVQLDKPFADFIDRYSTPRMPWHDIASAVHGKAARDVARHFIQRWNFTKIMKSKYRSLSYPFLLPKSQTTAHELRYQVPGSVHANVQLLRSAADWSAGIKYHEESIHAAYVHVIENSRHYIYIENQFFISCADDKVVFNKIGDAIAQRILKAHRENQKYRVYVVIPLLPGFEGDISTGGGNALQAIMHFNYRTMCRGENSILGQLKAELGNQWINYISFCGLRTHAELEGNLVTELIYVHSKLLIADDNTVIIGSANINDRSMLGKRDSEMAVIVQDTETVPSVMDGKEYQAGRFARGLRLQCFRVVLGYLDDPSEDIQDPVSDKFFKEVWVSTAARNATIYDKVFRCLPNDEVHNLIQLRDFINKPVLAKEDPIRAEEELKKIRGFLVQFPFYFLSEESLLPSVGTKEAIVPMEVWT
Nature of the experiment: PLD1 Cellular Concentration Response Study. The experiment is classed as functional.

A further experiment deals with Phospholipase D2 (Homo sapiens, UniProt O14939). Nature of the experiment: PLD2 Cellular Concentration Response Study. It is filed as functional.
Experiment [2] is described as follows: Potency on glucagon-like peptide 1 release, dose-response in NCI-H716 cell line, half maximal inhibitory concentration (AID 1117344). It is filed as functional, cell-based.
Experiment [3] in a line: glucagon-like peptide-1 release potency in STC-1, concentration-response, half-maximal inhibitory concentration in the STC-1 line (AID 1117345). The experiment is classed as functional, cell-based.
A short description of experiment [4]: IC50 of insulin release inhibition, rat insulinoma INS-1E line, 5 mM glucose, cell-based (AID 1117331). The experiment is classed as functional.

In ChEMBL document CHEMBL1201862, “PubChem BioAssay data set” (2004) one finds IC50 data, which are given here for four compounds.

One may read the IC50 as the concentration that inhibits the measured activity by half.

Calls of active or inactive are those of the source.

G-protein coupled receptor 183, sequence (P32249 whole entry): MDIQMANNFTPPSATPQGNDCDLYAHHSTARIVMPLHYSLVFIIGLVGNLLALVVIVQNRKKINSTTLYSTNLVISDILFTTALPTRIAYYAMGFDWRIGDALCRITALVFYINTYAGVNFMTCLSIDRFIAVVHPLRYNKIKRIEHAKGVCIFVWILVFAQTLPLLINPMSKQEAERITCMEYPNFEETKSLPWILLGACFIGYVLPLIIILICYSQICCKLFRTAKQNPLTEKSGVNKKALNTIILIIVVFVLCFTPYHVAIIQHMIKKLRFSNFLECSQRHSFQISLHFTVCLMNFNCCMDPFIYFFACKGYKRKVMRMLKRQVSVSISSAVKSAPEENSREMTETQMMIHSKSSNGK
Phospholipase D2, sequence (O14939 whole entry): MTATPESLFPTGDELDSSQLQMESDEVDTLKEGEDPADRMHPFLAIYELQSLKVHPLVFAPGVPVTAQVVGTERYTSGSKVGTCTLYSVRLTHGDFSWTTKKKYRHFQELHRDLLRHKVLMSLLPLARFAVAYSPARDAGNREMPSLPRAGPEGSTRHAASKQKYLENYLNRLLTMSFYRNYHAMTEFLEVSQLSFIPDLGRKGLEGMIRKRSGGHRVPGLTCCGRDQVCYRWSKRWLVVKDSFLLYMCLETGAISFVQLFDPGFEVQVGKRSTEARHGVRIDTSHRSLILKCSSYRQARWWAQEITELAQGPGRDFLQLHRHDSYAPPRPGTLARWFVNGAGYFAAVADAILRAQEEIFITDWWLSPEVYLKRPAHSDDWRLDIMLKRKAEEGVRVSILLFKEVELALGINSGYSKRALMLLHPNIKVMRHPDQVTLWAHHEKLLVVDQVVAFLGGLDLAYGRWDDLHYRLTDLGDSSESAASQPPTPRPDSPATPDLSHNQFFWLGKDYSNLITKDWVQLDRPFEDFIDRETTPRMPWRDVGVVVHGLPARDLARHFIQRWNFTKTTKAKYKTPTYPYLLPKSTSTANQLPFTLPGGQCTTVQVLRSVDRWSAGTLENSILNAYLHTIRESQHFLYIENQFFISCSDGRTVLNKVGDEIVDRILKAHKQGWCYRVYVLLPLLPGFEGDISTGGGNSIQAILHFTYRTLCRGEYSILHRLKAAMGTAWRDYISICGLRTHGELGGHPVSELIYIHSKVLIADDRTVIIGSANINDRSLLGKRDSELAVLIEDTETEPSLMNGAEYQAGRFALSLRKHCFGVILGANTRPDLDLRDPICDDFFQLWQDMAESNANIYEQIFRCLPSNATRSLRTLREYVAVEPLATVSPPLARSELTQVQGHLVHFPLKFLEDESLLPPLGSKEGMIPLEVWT

Take `c1ccc2c(c1)Nc1nc3ccccc3nc1N2`: the half-maximal inhibitory concentration (IC50) at NADPH oxidase 1 was 0.36 µM (active).
In the case of `O=C(/C=C/c1ccc(Cl)c(Cl)c1)N1CCN(C(=O)c2ccc(Cl)cc2)CC1`, the IC50 in experiment [1] is 0.00117 µM (active).
In the case of `O=C(NCCN1CCC2(CC1)C(=O)NCN2Cc1cccnc1)c1ccc(Cl)c(Cl)c1`, the IC50 was 20 µM (active) at Phospholipase D1 and 1.24 µM (active) on Phospholipase D2.
`NC(=O)C1(N2CCCCC2)CCN(CCCN2c3ccccc3CCc3ccc(Cl)cc32)CC1` [CLOCAPRAMINE]: the values for the IC50 in experiment [2], in experiment [3] and in experiment [4] were 18.3 µM (inactive), > 40 µM (inactive) and 10.1 µM (inactive), respectively.
